# Read-outs that look alike come from different tables or passages of the source.
# System: HCV pseudoparticles (genotype 1a HCV E1 and E2 envelope, H77C isolate)
# Assay: HCV pseudoparticle infection assay (genotype 1a, luciferase reporter, Huh7 cells)
# Assay type: cell-based
# Conditions: Hepatitis C virus, Huh-7, 48 h, read-out: EC50 (1a, nM), HCV genotype 1a pseudoparticles, Huh7 cells, luciferase 2 days after infection
Structure (SMILES),EC50 (class symbol),EC50 (numeric value)
"C[N+](C)(C)CC(=O)NNC(=O)c1ccc(Nc2nc(NC3(c4ccc(Cl)cc4)CC3)nc(OCC(F)(F)F)n2)cc1 [Compound 1003, 2-(2-(4-(4-(1-(4-chlorophenyl)cyclopropylamino)-6-(2,2,2-trifluoroethoxy)-1,3,5-triazin-2-ylamino)benzoyl)hydrazinyl)-N,N,N-trimethyl-2-oxoethanaminium]",10 to 1000 nM,64.1 nM
"C[N+](C)(C)CCCC[C@H](NC(=O)c1ccc(Nc2nc(NC3(c4ccc(Cl)cc4)CC3)nc(OCC(F)(F)F)n2)cc1)C(=O)O [Compound 1005, (S)-5-carboxy-5-(4-(4-(1-(4-chlorophenyl)cyclopropylamino)-6-(2,2,2-trifluoroethoxy)-1,3,5-triazin-2-ylamino)benzamido)-N,N,N-trimethylpentan-1-aminium]",0.01 to 10 nM,
C[N+](C)(C)CCNC(=O)c1ccc2cc1OCCCCCCOc1ccc(cc1)CNc1nc(nc(OCC(F)(F)F)n1)N2 [Compound 3001],0.01 to 10 nM,
CC(C)(CNC(=O)c1ccc2cc1OCCCCCCOc1ccc(cc1)CNc1nc(nc(OCC(F)(F)F)n1)N2)C[N+](C)(C)C [Compound 3003],0.01 to 10 nM,7.51 nM
"CC(C)(CNC(=O)c1ccc(Nc2nc(NC3(c4ccc(Cl)cc4)CC3)nc(OCC(F)(F)F)n2)cc1)C[N+](C)(C)C [Compound 1006, 3-(4-(4-(1-(4-chlorophenyl)cyclopropylamino)-6-(2,2,2-trifluoroethoxy)-1,3,5-triazin-2-ylamino)benzamido)-N,N,N,2,2-pentamethylpropan-1-aminium]",0.01 to 10 nM,0.115 nM
C[N+](C)(C)CCNC(=O)c1ccc2cc1OCCCCCCCCOc1ccc(cc1)CNc1nc(nc(OCC(F)(F)F)n1)N2 [Compound 2001],0.01 to 10 nM,
"C[N+](C)(C)CCCNC(=O)c1ccc(Nc2nc(NC3(c4ccc(Cl)cc4)CC3)nc(OCC(F)(F)F)n2)cc1 [Compound 1004, 3-(4-(4-(1-(4-chlorophenyl)cyclopropylamino)-6-(2,2,2-trifluoroethoxy)-1,3,5-triazin-2-ylamino)benzamido)-N,N,N-trimethylpropan-1-aminium]",0.01 to 10 nM,
C[N+](C)(C)CCNC(=O)c1ccc2cc1OCCOCCOCCOc1ccc(cc1)CNc1nc(nc(OCC(F)(F)F)n1)N2 [Compound 4001],0.01 to 10 nM,
"[2H]C([2H])(Oc1nc(Nc2ccc(C(=O)NCC[N+](C)(C)C)cc2)nc(NC2(c3ccc(Cl)cc3)CC2)n1)C(F)(F)F [Compound 1002, 2-(4-(4-(1-(4-chlorophenyl)cyclopropylamino)-6-(2,2,2-trifluoroethoxy-D2)-1,3,5-triazin-2-ylamino)benzamido)-N,N,N-trimethylethanaminium]",0.01 to 10 nM,
C[N+](C)(C)CCCNC(=O)c1ccc2cc1OCCCCCCOc1ccc(cc1)CNc1nc(nc(OCC(F)(F)F)n1)N2 [Compound 3002],10 to 1000 nM,
"C[N+](C)(C)CCNC(=O)c1ccc(Nc2nc(NC3(c4ccc(Cl)cc4)CC3)nc(OCC(F)(F)F)n2)cc1 [Compound 1001, 2-(4-(4-(1-(4-chlorophenyl)cyclopropylamino)-6-(2,2,2-trifluoroethoxy)-1,3,5-triazin-2-ylamino)benzamido)-N,N,N-trimethylethanaminium]",0.01 to 10 nM,
